# Test results as given in publication PMC11299271 (BMC Pharmacology & Toxicology, 2024).
# Values joined by “and” are separate entries in the source; they are usually repeats but may differ in a detail not shown here. Equal values may be shown once. Read-outs that look alike come from different tables or passages of the source.
# How the values were obtained:
# [1] = Pharmacokinetic measurements in T2DM rats (plasma concentrations by UPLC-MS/MS, two-compartment PK model); assay type: in vivo; conditions: for C5ohsax, observed plasma concentration: individual rats
# Description: . Plasma was obtained by centrifugation at 3000 r/min and stored at −80 °C until analysis.
# Plasma concentrations of analytes were determined using the UPLC-MS/MS method above. […].
# [2] = Plasma glucose concentration in T2DM rats (glucose oxidase method); assay type: in vivo
# Description: Glucose concentration in the plasma was determined by Glucose test kit (glucose oxidase method, Rongsheng biological Pharmaceutical Co.,Ltd, Shanghai, China). All the procedures were conducted according to manufacturers’ instructions. All test specimens (plasma samples, blank and calibration samples) were done in flat bottom 96 well microplates; 2.5 µL serum or calibration, 250 µL solution were pipetted into each well of the microplate, and the blank control contain water. The results were tested at 37 °C for 10 min and an absorbance value of 505 nm in a continuous monitoring micro plate reader. Glucose concentration (mmol/L) = (sample tube absorbent/calibration tube absorbent) × calibration fluid concentration (5.55 mmol/L). All experiments were repeated two duplicates.
# [3] = Plasma insulin concentration in T2DM rats (Rat INS ELISA Kit); assay type: in vivo
# Description: Insulin concentration in the plasma was determined by Rat INS ELISA Kit (Zeye Biotechnology Co., Ltd., Shanghai, China). All the procedures were conducted according to manufacturers’ instructions. Test specimens (plasma samples, blank and calibration samples) were added to an antibody-coated 96-well plate followed by addition of biological agent and enzyme conjugate solution, these mixtures incubated 30 min at 37 °C. The plate was then washed after incubation and a mixture of chromogenic reagent A and B was added. Optical density values at 450 nm were measured after terminating the reaction, and insulin concentrations were calculated according to the standard curve within a range of 0–20 mU/L (0, 1.25, 2.5, 5, 10, 20 mU/L).
# [4] = Stability of analytes in QC rat plasma (UPLC-MS/MS); assay type: physicochemical; conditions: for Stability, autosampler at 4 °C for up to 16 h (% of nominal): extracted plasma samples; for Stability, autosampler at 4 °C for up to 16 h (% of nominal) / Stability, 4 °C for 12 h (% of nominal) / Stability, freeze-thaw three cycles (% of nominal) / Stability, room temperature for 4 h (% of nominal) / Stability, −80 °C for 7 days (% of nominal): n = 3; for Stability, 4 °C for 12 h (% of nominal) / Stability, freeze-thaw three cycles (% of nominal) / Stability, room temperature for 4 h (% of nominal) / Stability, −80 °C for 7 days (% of nominal): rat plasma; for stability in plasma under storage conditions: room temperature (25 °C) 4 h, 4 °C 12 h, −80 °C 7 days, three freeze-thaw cycles, autosampler 4 °C up to 16 h
# Description: The stability of analytes in QC plasma was evaluated by analyzing replicates (n = 3) of LQC, MQC, HQC samples placed on storage for 4 h at room temperature (25 °C), for 12 h at 4 °C, for 7 days at −80 °C, and after three freeze-thaw cycles from −80 °C to room temperature. […]
# [5] = cited from earlier work
# [6] = T2DM rats, i.g. 10 mg/kg SAX, two-compartment model with first order absorption, mean (n = 3)
# [7] = i.g. 10 mg/kg SAX vs 0.5% CMC-Na
# [8] = high QC: spiked 2000 ng/mL SAX, 400 ng/mL 5-OH SAX
# [9] = low QC: spiked 15 ng/mL SAX, 3 ng/mL 5-OH SAX
# [10] = T2DM rats, i.v. 0.5 mg/kg 5-OH SAX, Subject1, Subject2, Subject3, 0.5 mg/kg
# [11] = T2DM rats, i.v. 0.5 mg/kg 5-OH SAX, two-compartment model, mean (n = 3)
smiles,measurement,setting,value
"N#C[C@@H]1C[C@@H]2C[C@@H]2N1C(=O)[C@@H](N)C12CC3CC(CC(O)(C3)C1)C2 [SAX, Saxagliptin]",CL2 (clearance rate of peripheral compartment),[1]; [6],284.8403 mL/min/kg
same,CL (clearance rate of central compartment),[1]; [6],54.0967 mL/min/kg
same,K12,[1]; [6],6.62 h⁻¹
same,K21,[1]; [6],1.07 h⁻¹
same,V2 (apparent distribution volume of peripheral compartment),[1]; [6],18.3933 L/kg
same,V (apparent distribution volume of central compartment),[1]; [6],2.30724 L/kg
same,Tmax,"[1]; rat, plasma, po, 10 mg/kg",6.6 min
same,half-life,"[1]; rat, plasma, po, 10 mg/kg, T2DM rats, i.g. 10 mg/kg SAX, two-compartment model with first order absorption, mean (n = 3), read-out: t1/2Ka (absorption phase half-life) (converted)",4.2 min
same,half-life,"[1]; rat, plasma, po, 10 mg/kg, T2DM rats, i.g. 10 mg/kg SAX, two-compartment model with first order absorption, mean (n = 3), read-out: t1/2a (distribution phase half-life) (converted)",4.8 min
same,half-life,"[1]; rat, plasma, po, 10 mg/kg, T2DM rats, i.g. 10 mg/kg SAX, two-compartment model with first order absorption, mean (n = 3), read-out: t1/2β (elimination half-life) (converted)",368 min
same,AUC,"[1]; rat, plasma, po, 10 mg/kg, read-out: AUC",3280 ng·h/mL
same,Cmax,"[1]; rat, plasma, po, 10 mg/kg, read-out: Cmax",2200 ng/mL
same,blood glucose compared to the control group,[2]; [7],no significant differences
same,insulin compared to the control group,[3]; [7],no significant differences
same,"Stability, autosampler at 4 °C for up to 16 h (% of nominal)",[4]; [8],98.05 ± 2.04%
same,"Stability, autosampler at 4 °C for up to 16 h (% of nominal)",[4]; [9],99.02 ± 2.00%
same,"Stability, 4 °C for 12 h (% of nominal)",[4]; [8],99.09 ± 2.02%
same,"Stability, freeze-thaw three cycles (% of nominal)",[4]; [8],95.84 ± 1.52%
same,"Stability, room temperature for 4 h (% of nominal)",[4]; [8],99.59 ± 3.47%
same,"Stability, −80 °C for 7 days (% of nominal)",[4]; [8],98.07 ± 2.07%
same,"Stability, 4 °C for 12 h (% of nominal)",[4]; [9],100.60 ± 2.29%
same,"Stability, freeze-thaw three cycles (% of nominal)",[4]; [9],96.71 ± 1.93%
same,"Stability, room temperature for 4 h (% of nominal)",[4]; [9],99.02 ± 2.02%
same,"Stability, −80 °C for 7 days (% of nominal)",[4]; [9],98.56 ± 2.14%
same,stability in plasma under storage conditions,[4],remained stable
same,share of the dose metabolized in the liver by CYP3A4/5 to 5-OH SAX,[5],about 50%
same,bioavailability,[5]; oral 5 mg SAX,75%
"N#C[C@@H]1C[C@@H]2C[C@@H]2N1C(=O)[C@@H](N)C12CC3CC(O)(CC(O)(C3)C1)C2 [5-OH SAX, 5-hydroxy Saxagliptin]","AUC, individual rats",[1]; [10],691.49 ng·h/mL and 452.17 ng·h/mL and 611.48 ng·h/mL
same,"Cl2, individual rats",[1]; [10],8.2463 mL/min/kg and 8.554 mL/min/kg and 6.7797 mL/min/kg
same,"Cl, individual rats",[1]; [10],12.051 mL/min/kg and 18.4298 mL/min/kg and 13.628 mL/min/kg
same,"K12, individual rats",[1]; [10],4.85 h⁻¹ and 2.93 h⁻¹ and 2.76 h⁻¹
same,"K21, individual rats",[1]; [10],3.41 h⁻¹ and 3.53 h⁻¹ and 3.31 h⁻¹
same,"V2, individual rats",[1]; [10],0.14522 L/kg and 0.14545 L/kg and 0.12277 L/kg
same,"V, individual rats",[1]; [10],0.10199 L/kg and 0.17509 L/kg and 0.14739 L/kg
same,"t1/2a, individual rats",[1]; [10],3 min and 3.6 min and 4.2 min
same,"t1/2β, individual rats",[1]; [10],23.4 min and 19.8 min and 22.2 min
same,"C5ohsax, observed plasma concentration","[1]; T2DM rats, i.v. 0.5 mg/kg 5-OH SAX, nominal time 0.08 h, 0.5 mg/kg",1610.00 ng/mL and 1240.00 ng/mL
same,"C5ohsax, observed plasma concentration","[1]; T2DM rats, i.v. 0.5 mg/kg 5-OH SAX, nominal time 0.17 h, 0.5 mg/kg",972.00 ng/mL and 684.00 ng/mL and 900.00 ng/mL
same,"C5ohsax, observed plasma concentration","[1]; T2DM rats, i.v. 0.5 mg/kg 5-OH SAX, nominal time 0.25 h, 0.5 mg/kg",595.00 ng/mL and 387.00 ng/mL and 550.00 ng/mL
same,"C5ohsax, observed plasma concentration","[1]; T2DM rats, i.v. 0.5 mg/kg 5-OH SAX, nominal time 0.50 h, 0.5 mg/kg",295.00 ng/mL and 192.00 ng/mL and 235.00 ng/mL
same,"C5ohsax, observed plasma concentration","[1]; T2DM rats, i.v. 0.5 mg/kg 5-OH SAX, nominal time 0.75 h, 0.5 mg/kg",150.00 ng/mL and 91.70 ng/mL and 149.00 ng/mL
same,"C5ohsax, observed plasma concentration","[1]; T2DM rats, i.v. 0.5 mg/kg 5-OH SAX, nominal time 2.00 h, 0.5 mg/kg",20.60 ng/mL and 8.16 ng/mL and 11.60 ng/mL
same,AUC,[1]; [11],585.04 ng·h/mL
same,CL2 (clearance rate of peripheral compartment),[1]; [11],7.86 mL/min/kg
same,CL (clearance rate of central compartment),[1]; [11],14.703 mL/min/kg
same,Cmax,[1]; [11],3716.88 ng/mL
same,K12,[1]; [11],3.51 h⁻¹
same,K21,[1]; [11],3.42 h⁻¹
same,V2 (apparent distribution volume of peripheral compartment),[1]; [11],0.13781 L/kg
same,V (apparent distribution volume of central compartment),[1]; [11],0.14149 L/kg
same,t1/2a (distribution phase half-life),[1]; [11],3.6 min
same,t1/2β (elimination half-life),[1]; [11],21.6 min
same,blood glucose compared to the control group,"[2]; tail vein 0.5 mg/kg 5-OH SAX vs saline, 0.08, 0.17, 0.25 and 0.5 h (P<0.05)",significant differences
same,insulin compared to the control group,"[3]; tail vein 0.5 mg/kg 5-OH SAX vs saline, within the sampling range",no significant differences
same,"Stability, autosampler at 4 °C for up to 16 h (% of nominal)",[4]; [8],101.22 ± 2.47%
same,"Stability, autosampler at 4 °C for up to 16 h (% of nominal)",[4]; [9],100.44 ± 3.10%
same,"Stability, 4 °C for 12 h (% of nominal)",[4]; [8],99.32 ± 2.66%
same,"Stability, freeze-thaw three cycles (% of nominal)",[4]; [8],95.79 ± 2.16%
same,"Stability, room temperature for 4 h (% of nominal)",[4]; [8],98.51 ± 2.19%
same,"Stability, −80 °C for 7 days (% of nominal)",[4]; [8],97.49 ± 2.52%
same,"Stability, 4 °C for 12 h (% of nominal)",[4]; [9],100.67 ± 2.52%
same,"Stability, freeze-thaw three cycles (% of nominal)",[4]; [9],94.89 ± 2.91%
same,"Stability, room temperature for 4 h (% of nominal)",[4]; [9],99.78 ± 2.22%
same,"Stability, −80 °C for 7 days (% of nominal)",[4]; [9],95.11 ± 4.55%
same,stability in plasma under storage conditions,[4],remained stable
same,systemic exposure in plasma relative to the parent drug SAX,[5]; after SAX,about 3 times
